Experimental data reported in EP0320984A2, “1,4-Dihydropyridine derivatives” (FUJIREBIO INC., priority 1987, dated 1989).

System: Rabbit platelet rich plasma (PRP)
Assay: Inhibitory activity on platelet aggregation in rabbit platelet rich plasma (light transmission)
Format: cell-based
Settings: added to PRP 30 minutes before agent; for Inhibitory activity on platelet aggregation, PAF: compound 3x10^-6 (unit not given), Platelet activating factor (PAF) 10 mg/ml; for Inhibitory activity on platelet aggregation, ADP / Inhibitory activity on platelet aggregation, AA / Inhibitory activity on platelet aggregation, Collagen: compound 10^-4 (unit not given); for Inhibitory activity on platelet aggregation, ADP: Adenosine diphosphate (ADP) 5 mM; for Inhibitory activity on platelet aggregation, AA: Arachidonic acid (AA) 1 mM; for Inhibitory activity on platelet aggregation, Collagen: aggregating agent collagen
Experimental: 3. Experiment for inhibitory activity on platelet aggregation in rabbit:
Rabbit platelet rich plasma (PRP) was prepared by centrifugation of the citrated blood at 380 g for 10 minutes at 20°C. Test solution (10 µl) was added to PRP (200 µl) 30 minutes before treatment of aggregation agents (10 µl). The extent of aggregation was expressed with the maximum change in light transmission for PRP and platelet poor plasma was taken as a value of 100%

Compound | Inhibitory activity on platelet aggregation, PAF | Inhibitory activity on platelet aggregation, ADP | Inhibitory activity on platelet aggregation, AA | Inhibitory activity on platelet aggregation, Collagen
COC(=O)C1=C(C)NC(C)=C(C(=O)OC/C=C/c2ccc(Cn3ccnc3)cc2)C1c1cccc([N+](=O)[O-])c1 (stereo not drawn) [Example 1, (E)-3-{4-(1-imidazolylmethyl)phenyl}-2-propen-1-yl methyl 1,4-dihydro-2,6-dimethyl-4-(3-nitrophenyl)pyridine-3,5-dicarboxylate] | 35.4% | 7.3% | 26.2% | 19.5%
COC(=O)C1=C(C)NC(C)=C(C(=O)OC/C=C/c2ccc(Cc3cccnc3)cc2)C1c1cccc([N+](=O)[O-])c1 (stereo not drawn) [Example 2, Methyl (E)-3-{4-(3-pyridylmethyl)phenyl}-2-propen-1-yl 1,4-dihydro-2,6-dimethyl-4-(3-nitrophenyl)pyridine-3,5-dicarboxylate] | 0% | 5.5% | 12.6% | 23.5%
COC(=O)C1=C(C)NC(C)=C(C(=O)OC/C=C/c2ccc(-n3ccnc3)cc2)C1c1cccc([N+](=O)[O-])c1 (stereo not drawn) [Example 3, (E)-3-{4-(1-imidazolyl)phenyl}-2-propen-1-yl methyl 1,4-dihydro-2,6-dimethyl-4-(3-nitrophenyl)pylidine-3,5-dicarboxylate] | 0% | 2.2% | 19.3% | 33.2%
COC(=O)C1=C(C)NC(C)=C(C(=O)OC/C=C/c2ccc(Cn3ccnc3)o2)C1c1cccc([N+](=O)[O-])c1 (stereo not drawn) [Example 4, (E)-3-{5-(1-imidazolylmethyl)-2-furan}-2-propen-1-yl methyl 1,4-dihydro-2,6-dimethyl-4-(3-nitrophenyl)pyridine-3,5-dicarboxylate] | 95.6% |  | 30.8% | 30.5%
COC(=O)C1=C(C)NC(C)=C(C(=O)OC/C=C/c2ccc(Cn3ccnc3)s2)C1c1cccc([N+](=O)[O-])c1 (stereo not drawn) [Example 5, (E)-3-{5-(1-imidazolylmethyl)-2-thiophene}-2-propen-1-yl methyl 1,4-dihydro-2,6-dimethyl-4-(3-nitrophenyl) pyridine-3,5-dicarboxylate] | 100% | 12.0% | 33.4% | 32.3%
COC(=O)C1=C(C)NC(C)=C(C(=O)OC/C=C(\C)c2ccc(Cn3ccnc3)cc2)C1c1cccc([N+](=O)[O-])c1 (stereo not drawn) [Example 6] | 0% | 6.5% | 15.6% | 27.2%
CCOC(=O)C1=C(C)NC(C)=C(C(=O)OC/C=C/c2ccc(Cn3ccnc3)cc2)C1c1cccc([N+](=O)[O-])c1 (stereo not drawn) [Example 7, Ethyl (E)-3-{4-(1-imidazolylmethyl)phenyl}-2-propen-1-yl 1,4-dihydro-2,6-dimethyl-4-(3-nitrophenyl)pyridine-3,5-dicarboxylate] | 0% | 4.3% | 17.8% | 30.9%
